ChEMBL document CHEMBL5726876, “NHE3-binding compounds and methods for inhibiting phosphate transport” (2019)

Assay: Cell-based activity under Prompt Conditions: Cell-based activity under Prompt Conditions. Rat or human NHE3-mediated Na+-dependent H+ antiport was measured using a modification of the pH sensitive dye method originally reported by Paradiso (PNAS USA. 81:7436-7440, 1984). Opossum kidney (OK) cells were obtained from the ATCC and propagated per their instructions. The rat NHE3 gene (GenBank M85300) or the human NHE3 gene (GenBank NM_004174.1) was introduced into OK cells via electroporation, and cells were seeded into 96 well plates and grown overnight. Medium was aspirated from the wells, cells were washed twice with NaCl-HEPES buffer (100 mM NaCl, 50 mM HEPES, 10 mM glucose, 5 mM KCl, 2 mM CaCl2, 1 mM MgCl2, pH 7.4), then incubated for 30 min at room temperature with NH4Cl-HEPES buffer (20 mM NH4Cl, 80 mM NaCl, 50 mM HEPES, 5 mM KCl, 2 mM CaCl2, 1 mM MgCl2, pH 7.4) containing 5 μM bis(acetoxymethyl) 3,3′-(3′,6′-bis(acetoxymethoxy)-5-((acetoxymethoxy)carbonyl)-3-oxo-3H-spiro[isobenzofuran-1,9′-xanthene]-2′,7′-diyl)dipropanoate (BCECF-AM).Cells were washed twice with Ammonium free, Na+-free HEPES (100 mM choline, 50 mM HEPES, 10 mM glucose, 5 mM KCl, 2 mM CaCl2, 1 mM MgCl2, pH 7.4) and incubated in the same buffer for 10 minutes at room temperature to lower intracellular pH. […] Initial rates were plotted as the average 2 or more replicates, and pIC50 values were estimated using GraphPad Prism.
`CN1Cc2c(Cl)cc(Cl)cc2[C@H](c2cccc(S(=O)(=O)NCCOCCOCCOCCNC(=O)NCCN(CCNC(=O)NCCOCCOCCOCCNS(=O)(=O)c3cccc([C@@H]4CN(C)Cc5c(Cl)cc(Cl)cc54)c3)CCNC(=O)NCCOCCOCCOCCNS(=O)(=O)c3cccc([C@@H]4CN(C)Cc5c(Cl)cc(Cl)cc54)c3)c2)C1` showed an IC50 of 126 nM.
Compound `CN1Cc2c(Cl)cc(Cl)cc2[C@H](c2cccc(S(=O)(=O)NCCOCCOCCNC(=O)COCC(=O)NCCOCCOCCNS(=O)(=O)c3ccc(O[C@H]4c5ccccc5C[C@@H]4N4CCCCC4)cc3)c2)C1` has an IC50 of 25.1 nM.
`CCCCNC(=O)NCCOCCOCCNC(=O)NCCOCCOCCOCCOc1ccc(-c2nc(NC(=N)N)nc3ccc(Cl)cc23)cc1` gave an IC50 of 25.1 nM.
`CN1Cc2c(Cl)cc(Cl)cc2[C@H](c2cccc(S(=O)(=O)NCCOCCOCCOCCNC(=O)CC(O)(CC(=O)NCCOCCOCCOCCNS(=O)(=O)c3cccc([C@@H]4CN(C)Cc5c(Cl)cc(Cl)cc54)c3)C(=O)NCCOCCOCCOCCNS(=O)(=O)c3cccc([C@@H]4CN(C)Cc5c(Cl)cc(Cl)cc54)c3)c2)C1` gave an IC50 of 100 nM.
With `O=C(NCCCCNC(=O)NCCOCCOCCNS(=O)(=O)c1ccc(O[C@H]2c3cc(Cl)cc(F)c3C[C@@H]2N2CC[C@@H](O)C2)cc1)NCCOCCOCCNS(=O)(=O)c1ccc(O[C@H]2c3cc(Cl)cc(F)c3C[C@@H]2N2CC[C@@H](O)C2)cc1` the IC50 was < 10000 nM.
In the case of `CN1Cc2c(Cl)cc(Cl)cc2[C@H](c2cccc(S(=O)(=O)NCCOCCOCCNC(=O)NCCN(CCNC(=O)NCCOCCOCCNS(=O)(=O)c3cccc([C@@H]4CN(C)Cc5c(Cl)cc(Cl)cc54)c3)C(=O)NCCOCCOCCN)c2)C1`, the IC50 is reported as 3.98 nM.
In the case of `CN1Cc2c(Cl)cc(Cl)cc2[C@H](c2cccc(S(=O)(=O)NCCOCCOCCOCCNC(=O)CN(CCN(CC(=O)NCCOCCOCCOCCNS(=O)(=O)c3cccc([C@@H]4CN(C)Cc5c(Cl)cc(Cl)cc54)c3)CC(=O)NCCOCCOCCOCCNS(=O)(=O)c3cccc([C@@H]4CN(C)Cc5c(Cl)cc(Cl)cc54)c3)CCN(CC(=O)NCCOCCOCCOCCNS(=O)(=O)c3cccc([C@@H]4CN(C)Cc5c(Cl)cc(Cl)cc54)c3)CC(=O)NCCOCCOCCOCCNS(=O)(=O)c3cccc([C@@H]4CN(C)Cc5c(Cl)cc(Cl)cc54)c3)c2)C1`, the IC50 is reported as 501 nM.
`CN1Cc2c(Cl)cc(Cl)cc2[C@H](c2cccc(S(=O)(=O)NCCOCCOCCNC(=O)CCC(CCC(=O)NCCOCCOCCNS(=O)(=O)c3cccc([C@@H]4CN(C)Cc5c(Cl)cc(Cl)cc54)c3)(CCC(=O)NCCOCCOCCNS(=O)(=O)c3cccc([C@@H]4CN(C)Cc5c(Cl)cc(Cl)cc54)c3)NS(C)(=O)=O)c2)C1` showed an IC50 of 631 nM.
`CN1Cc2c(Cl)cc(Cl)cc2[C@H](c2cccc(NC(=O)[C@H](O)[C@@H](O)[C@H](O)[C@H](O)CO)c2)C1` showed an IC50 of 25.1 nM.
Compound `CN1Cc2c(Cl)cc(Cl)cc2[C@H](c2cccc(S(=O)(=O)NCCOCCOCCNC(=O)CCC(CCC(=O)NCCOCCOCCNS(=O)(=O)c3cccc([C@@H]4CN(C)Cc5c(Cl)cc(Cl)cc54)c3)(CCC(=O)NCCOCCOCCNS(=O)(=O)c3cccc([C@@H]4CN(C)Cc5c(Cl)cc(Cl)cc54)c3)NC(=O)N[C@@H](CO)C(=O)O)c2)C1` has an IC50 of 12.6 nM.
For `CN1Cc2c(Cl)cc(Cl)cc2[C@H](c2cccc(S(=O)(=O)NCCOCCOCCOCCNCc3ccc(-c4ccc(Cl)cc4)cc3)c2)C1`, the IC50 was < 10000 nM.
Work on `CCNC(=O)CN(C)CC(=O)NCCOCCOCCOCCNS(=O)(=O)c1ccc(Oc2c(F)cc(/C=C(\C)C(=O)N=C(N)N)cc2F)cc1` yielded an IC50 of 316 nM.
For `CN(C)[C@H]1Cc2ccccc2[C@@H]1Oc1ccc(S(=O)(=O)NCCOCCOCCNC(=O)NCCCCNC(=O)NCCOCCOCCNS(=O)(=O)c2ccc(O[C@H]3c4ccccc4C[C@@H]3N(C)C)cc2)cc1`, the IC50 was < 10000 nM.
`O=C(NCCOCCOCCNS(=O)(=O)c1ccc(O[C@H]2c3ccccc3C[C@@H]2N2CCCCC2)cc1)c1ccc(C(=O)NCCOCCOCCNS(=O)(=O)c2ccc(O[C@H]3c4ccccc4C[C@@H]3N3CCCCC3)cc2)cc1` showed an IC50 of 7.94 nM.
In the case of `CN1Cc2c(Cl)cc(Cl)cc2[C@H](c2cccc(S(=O)(=O)NCCOCCOCCNC(=O)NCCN(CCNC(=O)NCCOCCOCCNS(=O)(=O)c3cccc([C@@H]4CN(C)Cc5c(Cl)cc(Cl)cc54)c3)C(=O)NCCOCCOCCNC(=O)c3ccc(-c4ccc(Cl)cc4)cc3)c2)C1`, the IC50 is reported as 1580 nM.
For `CCOCCN(CC(=O)NCCOCCOCCOCCNS(=O)(=O)c1cccc([C@@H]2CN(C)Cc3c(Cl)cc(Cl)cc32)c1)CC(=O)NCCOCCOCCOCCNS(=O)(=O)c1cccc([C@@H]2CCN(C)c3c(Cl)cc(Cl)cc32)c1`, the IC50 was 63.1 nM.
`CN(CCCNC(=O)NCCOCCOCCOCCNS(=O)(=O)c1cccc([C@@H]2CN(C)Cc3c(Cl)cc(Cl)cc32)c1)CCCNC(=O)NCCOCCOCCOCCNS(=O)(=O)c1cccc([C@@H]2CN(C)Cc3c(Cl)cc(Cl)cc32)c1` gave an IC50 of 39.8 nM.
With `C/C(=C\c1cc(F)c(Oc2ccc(S(=O)(=O)NCCOCCOCCOCCNC(=O)NCCCCNC(=O)NCCOCCOCCOCCNS(=O)(=O)c3ccc(Oc4c(F)cc(/C=C(\C)C(=O)N=C(N)N)cc4F)cc3)cc2)c(F)c1)C(=O)N=C(N)N` the IC50 was 31.6 nM.
With `N=C(N)Nc1nc(-c2cccc(S(=O)(=O)NCCOCCOCCOCCN)c2)c2cc(Cl)ccc2n1` the IC50 was 794 nM.
In the case of `CN1Cc2c(Cl)cc(Cl)cc2[C@H](c2cccc(S(=O)(=O)NCCOCCOCCNC(=O)NCCCC(CCCNC(=O)NCCOCCOCCNS(=O)(=O)c3cccc([C@@H]4CN(C)Cc5c(Cl)cc(Cl)cc54)c3)(CCCNC(=O)NCCOCCOCCNS(=O)(=O)c3cccc([C@@H]4CN(C)Cc5c(Cl)cc(Cl)cc54)c3)NC(=O)COCC(=O)O)c2)C1`, the IC50 is reported as 0.631 nM.
With `CCC(=O)NCCOCCOCCOCCNS(=O)(=O)c1cccc([C@@H]2CN(C)Cc3c(Cl)cc(Cl)cc32)c1` the IC50 was 200 nM.
In the case of `CN1Cc2c(Cl)cc(Cl)cc2[C@H](c2cccc(S(=O)(=O)NCCOCCOCCNC(=O)CCC(CCC(=O)NCCOCCOCCNS(=O)(=O)c3cccc([C@@H]4CN(C)Cc5c(Cl)cc(Cl)cc54)c3)(CCC(=O)NCCOCCOCCNS(=O)(=O)c3cccc([C@@H]4CN(C)Cc5c(Cl)cc(Cl)cc54)c3)NC(N)=O)c2)C1`, the IC50 is reported as 316 nM.
For `CN1Cc2c(Cl)cc(Cl)cc2[C@H](c2cccc(S(=O)(=O)NCCOCCOCCN(C)C(=O)CCC(CCC(=O)N(C)CCOCCOCCNS(=O)(=O)c3cccc([C@@H]4CN(C)Cc5c(Cl)cc(Cl)cc54)c3)(CCC(=O)N(C)CCOCCOCCNS(=O)(=O)c3cccc([C@@H]4CN(C)Cc5c(Cl)cc(Cl)cc54)c3)NC(=O)COCC(=O)O)c2)C1`, the IC50 was 20 nM.
Work on `COCCNC(=O)CN(C)CC(=O)NCCOCCOCCNC(=O)NCCOCCOCCOCCOc1ccc(-c2nc(NC(=N)N)nc3ccc(Cl)cc23)cc1` yielded an IC50 of 12.6 nM.
`CN1Cc2c(Cl)cc(Cl)cc2[C@H](c2cccc(S(=O)(=O)NCCOCCOCCNC(=O)NCCCN(CCCNC(=O)NCCOCCOCCNS(=O)(=O)c3cccc([C@@H]4CN(C)Cc5c(Cl)cc(Cl)cc54)c3)CCCNC(=O)NCCOCCOCCNS(=O)(=O)c3cccc([C@@H]4CN(C)Cc5c(Cl)cc(Cl)cc54)c3)c2)C1` showed an IC50 of 562 nM.
In the case of `CN1Cc2c(Cl)cc(Cl)cc2[C@H](c2cccc(S(=O)(=O)NCCOCCOCCNC(=O)CN(CCOCCOCCN(CC(=O)NCCOCCOCCNS(=O)(=O)c3cccc([C@@H]4CN(C)Cc5c(Cl)cc(Cl)cc54)c3)CC(=O)NCCOCCOCCNS(=O)(=O)c3cccc([C@@H]4CN(C)Cc5c(Cl)cc(Cl)cc54)c3)CC(=O)NCCOCCOCCNS(=O)(=O)c3cccc([C@@H]4CN(C)Cc5c(Cl)cc(Cl)cc54)c3)c2)C1`, the IC50 is reported as 1580 nM.
For `CN1Cc2c(Cl)cc(Cl)cc2[C@H](c2cccc(S(=O)(=O)N(C)CCOCCOCCNC(=O)NCCCN(CCCNC(=O)NCCOCCOCCN(C)S(=O)(=O)c3cccc([C@@H]4CN(C)Cc5c(Cl)cc(Cl)cc54)c3)CCCNC(=O)NCCOCCOCCN(C)S(=O)(=O)c3cccc([C@@H]4CN(C)Cc5c(Cl)cc(Cl)cc54)c3)c2)C1`, the IC50 was 100 nM.
For `CN1Cc2c(Cl)cc(Cl)cc2[C@H](c2cccc(S(=O)(=O)NCCOCCOCCNC(=O)CCC(CCCNC(=O)NCCOCCOCCNS(=O)(=O)c3cccc([C@@H]4CN(C)Cc5c(Cl)cc(Cl)cc54)c3)(CCC(=O)NCCOCCOCCNS(=O)(=O)c3cccc([C@@H]4CN(C)Cc5c(Cl)cc(Cl)cc54)c3)NC(=O)NCP(=O)(O)O)c2)C1`, the IC50 was 50.1 nM.
In the case of `NCCOCCOCCN1CCN(c2ccc(-c3nc(N=C(N)N)nc4ccc(Cl)cc34)cc2)CC1`, the IC50 is reported as 100 nM.
For `CN1Cc2c(Cl)cc(Cl)cc2[C@H](c2cccc(S(=O)(=O)NCCOCCOCCOCCNC(=O)CCC(CCC(=O)NCCOCCOCCOCCNS(=O)(=O)c3cccc([C@@H]4CN(C)Cc5c(Cl)cc(Cl)cc54)c3)(CCC(=O)NCCOCCOCCOCCNS(=O)(=O)c3cccc([C@@H]4CN(C)Cc5c(Cl)cc(Cl)cc54)c3)NC(=O)c3ccc(-c4ccc(Cl)cc4)cc3)c2)C1`, the IC50 was 5010 nM.
With `CCOCCOCCOCCOCCC(=O)NCCOCCOCCNS(=O)(=O)c1ccc(OC2c3ccccc3C[C@@H]2N2CCCCC2)cc1` (stereo partly specified) the IC50 was 50.1 nM.
Compound `CCCOCNC(=O)NCCCCNC(=O)NCCOCCOCCNC(=O)NCCOCCOCCN1CCN(c2cccc(-c3nc(N=C(N)N)nc4ccc(Cl)cc34)c2)CC1` has an IC50 of 25.1 nM.
In the case of `CCOCCOCCOCCNC(=O)NCCCCNC(=O)NCCOCCOCCOCCNS(=O)(=O)c1ccc(O[C@H]2c3ccccc3C[C@@H]2N2CCCCC2)cc1`, the IC50 is reported as 39.8 nM.
`CN1Cc2c(Cl)cc(Cl)cc2[C@H](c2cccc(S(=O)(=O)NCCOCCOCCOCCNC(=O)CN(CC(=O)NCCOCCOCCOCCNS(=O)(=O)c3cccc([C@@H]4CN(C)Cc5c(Cl)cc(Cl)cc54)c3)CC(=O)NCCOCCOCCOCCNS(=O)(=O)c3cccc([C@@H]4CN(C)Cc5c(Cl)cc(Cl)cc54)c3)c2)C1` showed an IC50 of 79.4 nM.
`CN(C)CC(=O)NC(CCC(=O)N(C)CCOCCOCCNS(=O)(=O)c1cccc([C@@H]2CN(C)Cc3c(Cl)cc(Cl)cc32)c1)(CCC(=O)N(C)CCOCCOCCNS(=O)(=O)c1cccc([C@@H]2CN(C)Cc3c(Cl)cc(Cl)cc32)c1)CCC(=O)N(C)CCOCCOCCNS(=O)(=O)c1cccc([C@@H]2CN(C)Cc3c(Cl)cc(Cl)cc32)c1` showed an IC50 of 31.6 nM.
For `COCCNC(=O)CN(C)CC(=O)NCCOCCOCCNC(=O)NCCOCCOCCOCCN1CCN(c2ccc(-c3nc(N=C(N)N)nc4ccc(Cl)cc34)cc2)CC1`, the IC50 was 31.6 nM.
